# Measurements as given in paper PMC3599355, “Discovery and characterization of a highly efficient enantioselective mandelonitrile hydrolase from Burkholderia cenocepacia J2315 by phylogeny-based enzymatic substrate specificity prediction” (BMC Biotechnology, 2013).
# Target: T1, BCJ2315 (Burkholderia cenocepacia, UniProt B4E7T0)
# T1 construct: gene BCAL2585; full-length gene in pQE30 (BamHI/HindIII), His-tag kept, E. coli M15; 37 kDa subunit, native about 450 kDa, 12 identical subunits
# Test: HPLC hydrolysis assay, Lineweaver-Burk
# Assay type: biochemical
# Conditions: standard assay: 100 mM sodium phosphate pH 7.0, 30 °C; mandelonitrile 0.1 to 15 mM; stereo form not stated
# T1 sequence (B4E7T0 entry or part of it): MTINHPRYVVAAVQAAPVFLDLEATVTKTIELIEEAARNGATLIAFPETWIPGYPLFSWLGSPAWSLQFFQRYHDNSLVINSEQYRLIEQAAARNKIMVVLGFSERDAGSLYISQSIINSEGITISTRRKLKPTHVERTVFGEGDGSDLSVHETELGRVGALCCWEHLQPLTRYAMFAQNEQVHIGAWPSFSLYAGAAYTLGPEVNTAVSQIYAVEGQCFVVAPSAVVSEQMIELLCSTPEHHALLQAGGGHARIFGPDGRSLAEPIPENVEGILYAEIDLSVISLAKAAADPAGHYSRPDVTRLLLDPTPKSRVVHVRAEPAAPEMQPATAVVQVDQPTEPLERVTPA
smiles,measurement,value
N#CC(O)c1ccccc1 (stereo not shown) [mandelonitrile],Km,140 µM
